Assay: molar heat capacity at constant pressure; xn = mol fraction of the nth substance listed
Conditions: 101.3 kPa, Liquid, Small sample (50 mg) DSC

CCC(C)(C)O [2-methylbutan-2-ol] + CCCCCCC
Conditions | molar heat capacity at constant pressure [J/K/mol]
318.15 K, x1 = 0.4051 | 268.55
318.15 K, x1 = 0.4986 | 270.68
318.15 K, x1 = 0.5981 | 271.65
318.15 K, x1 = 0.7015 | 272.08
318.15 K, x1 = 0.8023 | 271.36
318.15 K, x1 = 0.9139 | 270.14
318.15 K, x1 = 0.9609 | 269.17
319.15 K, x1 = 0.0061 | 232.58
319.15 K, x1 = 0.0494 | 240.63
319.15 K, x1 = 0.1 | 249.49
319.15 K, x1 = 0.1547 | 255.72
319.15 K, x1 = 0.1999 | 259.62
319.15 K, x1 = 0.2993 | 265.58
319.15 K, x1 = 0.4051 | 269.3
319.15 K, x1 = 0.4986 | 271.51
319.15 K, x1 = 0.5981 | 272.56
319.15 K, x1 = 0.7015 | 273.04
319.15 K, x1 = 0.8023 | 272.38
319.15 K, x1 = 0.9609 | 270.15
319.16 K, x1 = 0.0249 | 235.12
319.16 K, x1 = 0.9139 | 271.16
320.14 K, x1 = 0.0061 | 232.92
320.14 K, x1 = 0.0249 | 235.28
320.14 K, x1 = 0.0494 | 240.72
320.14 K, x1 = 0.1 | 249.68
320.14 K, x1 = 0.1547 | 255.93
320.14 K, x1 = 0.1999 | 260.03
320.14 K, x1 = 0.2993 | 266.13
320.14 K, x1 = 0.4051 | 269.96
320.14 K, x1 = 0.4986 | 272.22
320.14 K, x1 = 0.5981 | 273.33
320.14 K, x1 = 0.7015 | 273.87
320.14 K, x1 = 0.8023 | 273.27
320.14 K, x1 = 0.9139 | 272.09
320.14 K, x1 = 0.9609 | 270.99
321.15 K, x1 = 0.0061 | 233.36
321.15 K, x1 = 0.0249 | 235.64
321.15 K, x1 = 0.0494 | 240.94
321.15 K, x1 = 0.1 | 249.94
321.15 K, x1 = 0.1547 | 256.42
321.15 K, x1 = 0.1999 | 260.55
321.15 K, x1 = 0.2993 | 266.78
321.15 K, x1 = 0.4051 | 270.74
321.15 K, x1 = 0.4986 | 273.12
321.15 K, x1 = 0.5981 | 274.26
321.15 K, x1 = 0.7015 | 274.94
321.15 K, x1 = 0.8023 | 274.3
321.15 K, x1 = 0.9139 | 273.21
321.15 K, x1 = 0.9609 | 272.08
322.15 K, x1 = 0.0061 | 233.83
322.15 K, x1 = 0.0249 | 235.95
322.15 K, x1 = 0.0494 | 241.13
322.15 K, x1 = 0.1 | 250.19
322.15 K, x1 = 0.1547 | 256.8
322.15 K, x1 = 0.1999 | 261.03
322.15 K, x1 = 0.2993 | 267.36
322.15 K, x1 = 0.4051 | 271.46
322.15 K, x1 = 0.4986 | 273.9
322.15 K, x1 = 0.5981 | 275.18
322.15 K, x1 = 0.7015 | 275.82
322.15 K, x1 = 0.8023 | 275.19
322.15 K, x1 = 0.9139 | 274.13
322.15 K, x1 = 0.9609 | 272.97
323.14 K, x1 = 0.0061 | 234.21
323.14 K, x1 = 0.0249 | 236.15
323.14 K, x1 = 0.0494 | 241.26
323.14 K, x1 = 0.1 | 250.37
323.14 K, x1 = 0.1547 | 257.15
323.14 K, x1 = 0.1999 | 261.38
323.14 K, x1 = 0.2993 | 267.94
323.14 K, x1 = 0.4051 | 272.09
323.14 K, x1 = 0.4986 | 274.67
323.14 K, x1 = 0.5981 | 275.95
323.14 K, x1 = 0.7015 | 276.7
323.14 K, x1 = 0.8023 | 276.15
323.14 K, x1 = 0.9139 | 275.08
323.14 K, x1 = 0.9609 | 273.92
324.15 K, x1 = 0.0061 | 234.52
324.15 K, x1 = 0.0249 | 236.43
324.15 K, x1 = 0.0494 | 241.45
324.15 K, x1 = 0.1 | 250.6
324.15 K, x1 = 0.1547 | 257.46
324.15 K, x1 = 0.1999 | 261.78
324.15 K, x1 = 0.2993 | 268.5
324.15 K, x1 = 0.4051 | 272.8
324.15 K, x1 = 0.4986 | 275.41
324.15 K, x1 = 0.5981 | 276.79
324.15 K, x1 = 0.7015 | 277.57
324.15 K, x1 = 0.8023 | 277.05
324.15 K, x1 = 0.9139 | 275.96
324.15 K, x1 = 0.9609 | 274.86
325.15 K, x1 = 0.0061 | 234.92
325.15 K, x1 = 0.0249 | 236.8
325.15 K, x1 = 0.0494 | 241.6
325.15 K, x1 = 0.1 | 250.76
325.15 K, x1 = 0.1547 | 257.7
325.15 K, x1 = 0.1999 | 262.12
325.15 K, x1 = 0.2993 | 269.04
325.15 K, x1 = 0.4051 | 273.4
325.15 K, x1 = 0.4986 | 276.1
325.15 K, x1 = 0.5981 | 277.56
325.15 K, x1 = 0.7015 | 278.38
325.15 K, x1 = 0.8023 | 277.92
325.15 K, x1 = 0.9139 | 276.88
325.15 K, x1 = 0.9609 | 275.71
326.14 K, x1 = 0.0061 | 235.39
326.14 K, x1 = 0.0249 | 237.1
326.14 K, x1 = 0.0494 | 241.8
326.14 K, x1 = 0.1 | 250.96
326.14 K, x1 = 0.1547 | 258.02
326.14 K, x1 = 0.1999 | 262.54
326.14 K, x1 = 0.2993 | 269.54
326.14 K, x1 = 0.4051 | 274.06
326.14 K, x1 = 0.4986 | 276.85
326.14 K, x1 = 0.5981 | 278.41
326.14 K, x1 = 0.7015 | 279.29
326.14 K, x1 = 0.8023 | 278.83
326.14 K, x1 = 0.9139 | 277.8
326.14 K, x1 = 0.9609 | 276.69
327.14 K, x1 = 0.1999 | 262.84
327.15 K, x1 = 0.0061 | 235.69
327.15 K, x1 = 0.0249 | 237.39
327.15 K, x1 = 0.0494 | 241.94
327.15 K, x1 = 0.1 | 251.07

— the NIST ThermoML archive (doi:10.1016/j.jct.2008.10.010)
